The record followed here is ChEMBL document CHEMBL4414672, “Synthesis of certain benzothieno[3,2-d]pyrimidine derivatives as a selective SIRT2 inhibitors” (Eur J Med Chem, 2020).

Format in all cases: functional
One test relates to HL-60(TB). As to the kind of experiment: Growth inhibition of human HL-60(TB) cells at 10^-5 M incubated for 48 hrs by sulforhodamine B assay. The settings on record: HL-60, 48 h, read-out: GI. (The SRB assay estimates cell density from bound dye.)
Another test relates to NCI-H460. As to the kind of experiment: Growth inhibition of human NCI-H460 cells at 10^-5 M incubated for 48 hrs by sulforhodamine B assay. The settings on record: NCI-H460, 48 h, read-out: GI.
In another test the test system is SK-MEL-2. As to the kind of experiment: Growth inhibition of human SK-MEL-2 cells at 10^-5 M incubated for 48 hrs by sulforhodamine B assay. The settings on record: SK-MEL-2, 48 h, read-out: GI.
A further test concerns MDA-MB-435. Briefly: Growth inhibition of human MDA-MB-435 cells at 10^-5 M incubated for 48 hrs by sulforhodamine B assay. The note with it: MDA-MB-435, 48 h, read-out: GI.
A further test relates to HCT-116. Briefly: Growth inhibition of human HCT116 cells at 10^-5 M incubated for 48 hrs by sulforhodamine B assay. The settings on record: HCT-116, 48 h, read-out: GI.
The test system of a further test is KM12. Briefly: Growth inhibition of human KM12 cells at 10^-5 M incubated for 48 hrs by sulforhodamine B assay. The note with it: KM12, 48 h, read-out: GI.
A further test deals with HCT-15. Briefly: Growth inhibition of human HCT15 cells at 10^-5 M incubated for 48 hrs by sulforhodamine B assay. The note with it: HCT-15, 48 h, read-out: GI.
Another test deals with UO-31. As to the kind of experiment: Growth inhibition of human UO31 cells at 10^-5 M incubated for 48 hrs by sulforhodamine B assay. The note with it: UO-31, 48 h, read-out: GI.
For a further test, the system named is SF-539. Briefly: Growth inhibition of human SF539 cells at 10^-5 M incubated for 48 hrs by sulforhodamine B assay. The settings on record: SF-539, 48 h, read-out: GI.
A further test concerns 786-0. As to the kind of experiment: Growth inhibition of human 786-0 cells at 10^-5 M incubated for 48 hrs by sulforhodamine B assay. The note with it: 786-0, 48 h, read-out: GI.
The subject of the next test is HOP-62. As to the kind of experiment: Growth inhibition of human HOP62 cells at 10^-5 M incubated for 48 hrs by sulforhodamine B assay. The settings on record: HOP-62, 48 h, read-out: GI.
A further test concerns SF-295. As to the kind of experiment: Growth inhibition of human SF295 cells at 10^-5 M incubated for 48 hrs by sulforhodamine B assay. The settings on record: SF-295, 48 h, read-out: GI.
For the next test, the system named is CCRF-CEM. Briefly: Growth inhibition of human CCRF-CEM cells at 10^-5 M incubated for 48 hrs by sulforhodamine B assay. The note with it: read-out: GI.
For a further test, the system named is MOLT-4. Briefly: Growth inhibition of human MOLT4 cells at 10^-5 M incubated for 48 hrs by sulforhodamine B assay. The note with it: MOLT-4, 48 h, read-out: GI.
A further test has as its system OVCAR-4. Briefly: Growth inhibition of human OVCAR4 cells at 10^-5 M incubated for 48 hrs by sulforhodamine B assay. The note with it: OVCAR-4, 48 h, read-out: GI.
For the next test, the system named is SNB-19. Briefly: Growth inhibition of human SNB19 cells at 10^-5 M incubated for 48 hrs by sulforhodamine B assay. The note with it: SNB-19, 48 h, read-out: GI.
A further test concerns T47D. Briefly: Growth inhibition of human T47D cells at 10^-5 M incubated for 48 hrs by sulforhodamine B assay. The settings on record: read-out: GI.
A further test relates to SK-MEL-28. Briefly: Growth inhibition of human SK-MEL-28 cells at 10^-5 M incubated for 48 hrs by sulforhodamine B assay. The settings on record: SK-MEL-28, 48 h, read-out: GI.
The test system of a further test is NCI-H522. As to the kind of experiment: Growth inhibition of human NCI-H522 cells at 10^-5 M incubated for 48 hrs by sulforhodamine B assay. The settings on record: NCI-H522, 48 h, read-out: GI.
The test system of a further test is LOX IMVI. Briefly: Growth inhibition of human LOXIMVI cells at 10^-5 M incubated for 48 hrs by sulforhodamine B assay. The note with it: read-out: GI.

For `N=C1Nc2c(sc3ccc(Cl)cc23)C(c2ccccc2O)N1` (stereo not given), the inhibition of growth at 10 µM in the test with HL-60(TB) is -8.53%; in the test on NCI-H460 it was 0.95%; in the test on SK-MEL-2 it was 0.27%; with MDA-MB-435 it was 2%; in the test on HCT-116, 10.7%; in the test on KM12, -3.63%. Further, the inhibition of growth at 10 µM was -5.8% in the test with HCT-15; 11.9% in the test with UO-31; -6.63% in the test on SF-539; -0.24% with 786-0; 9.32% with HOP-62; -6.6% in the test on SF-295. Moreover, the inhibition of growth at 10 µM in the test on CCRF-CEM is -8.23%; in the test with MOLT-4, 0.44%; with OVCAR-4, 12.3%; in the test with SNB-19 it was -3.35%; in the test with T47D, -13.9%; with SK-MEL-28, -16.7%. Moreover, the inhibition of growth at 10 µM in the test with NCI-H522 was 7.68%; in the test on LOX IMVI, -0.7%.
On to `O=C1/C(=C\c2cccc(Br)c2)Sc2ccc(Cl)cc21`, for which the inhibition of growth at 10 µM in the test on HL-60(TB) was -5.53%; with NCI-H460, -7.98%; in the test on SK-MEL-2 it was -5.68%; with MDA-MB-435, -14%; in the test with HCT-116, 0.42%; in the test with KM12, -0.19%. Besides, the inhibition of growth at 10 µM in the test with HCT-15 is -10.9%; in the test on UO-31, -29.1%; in the test with SF-539, -3.89%; with 786-0, -3.61%; in the test with HOP-62, 3.1%; with SF-295, -0.53%. Further, the inhibition of growth at 10 µM is -14.5% with CCRF-CEM; -5.33% in the test with MOLT-4; -9.77% in the test on OVCAR-4; -6.33% in the test on SNB-19; 1.47% in the test on T47D; -20.5% with SK-MEL-28. Moreover, the results for the inhibition of growth at 10 µM in the test with NCI-H522 and with LOX IMVI were 5.63% and 2.63%, respectively.
Take `O=C1/C(=C\c2ccccc2O)Sc2ccc(Cl)cc21`: the inhibition of growth at 10 µM is -1.87% with HL-60(TB); -8.83% in the test on NCI-H460; 1.25% in the test with SK-MEL-2; -5.13% in the test with MDA-MB-435; 10% with HCT-116; -0.47% in the test on KM12. Moreover, the inhibition of growth at 10 µM in the test with HCT-15 is -7.07%; in the test with UO-31, -16%; in the test with SF-539, -6.81%; in the test with 786-0 it was -0.39%; in the test with HOP-62, 5.99%; with SF-295, -6.81%. Also, the inhibition of growth at 10 µM in the test on CCRF-CEM was -1.92%; in the test with MOLT-4, 11.4%; with OVCAR-4 it was 1.63%; in the test on SNB-19 it was -7.92%; in the test on T47D, 22.2%; in the test on SK-MEL-28 it was -14.6%. The inhibition of growth at 10 µM in the test with NCI-H522 is 5.61%; in the test with LOX IMVI, 9.63%.
Turning to `Oc1ccccc1C1NC(=S)Nc2c1sc1ccc(Cl)cc21` (stereo not given), the inhibition of growth at 10 µM in the test on HL-60(TB) was -4.7%; in the test with NCI-H460, 1.28%; in the test with SK-MEL-2, 7.35%; in the test with MDA-MB-435, -10.2%; in the test with HCT-116 it was 8.97%; in the test with KM12, 1.3%. Besides, the inhibition of growth at 10 µM in the test on HCT-15 is -0.05%; with UO-31, -8.34%; in the test with SF-539, -0.95%; in the test on 786-0 it was 6.17%; in the test on HOP-62, 5.51%; in the test with SF-295, -0.95%. Besides, the inhibition of growth at 10 µM in the test on CCRF-CEM is -4.86%; with MOLT-4, 9.69%; with OVCAR-4, 7.52%; in the test on SNB-19 it was 2.48%; in the test on T47D, 24.8%; with SK-MEL-28 it was -6.12%. Further, the inhibition of growth at 10 µM in the test on NCI-H522 was 7.8%; in the test on LOX IMVI, 6.44%.
With `O=C1Nc2c(sc3ccc(Cl)cc23)C(c2cccc([N+](=O)[O-])c2)N1` (stereo not given), the inhibition of growth at 10 µM with HL-60(TB) was 1.94%; in the test with NCI-H460, 3.38%; in the test with SK-MEL-2, 2.08%; in the test on MDA-MB-435, -2.51%; in the test on HCT-116, 5.37%; in the test on KM12, 3.73%. Also, the inhibition of growth at 10 µM is -4.66% in the test with HCT-15; 35.2% with UO-31; 8.46% in the test on SF-539; 4.42% in the test on 786-0; 8.74% in the test with HOP-62; 1.41% in the test with SF-295. The inhibition of growth at 10 µM was -13.9% in the test on CCRF-CEM; 11% in the test on MOLT-4; 7.21% in the test on OVCAR-4; 5.92% in the test with SNB-19; 16.3% in the test on T47D; -5.57% in the test on SK-MEL-28. Besides, the figures for the inhibition of growth at 10 µM in the test on NCI-H522 and with LOX IMVI were 9.73% and 4.86%, respectively.
`O=[N+]([O-])c1cccc(C2c3sc4ccc(Cl)cc4c3N=C3NN=NN32)c1` (stereo not given): the inhibition of growth at 10 µM with HL-60(TB) is -9.93%; in the test on NCI-H460, 6.19%; in the test with SK-MEL-2, -23%; with MDA-MB-435, 2.65%; in the test on HCT-116, -7.64%; in the test with KM12, -1.99%. Further, the inhibition of growth at 10 µM is -16% in the test on HCT-15; 14.5% in the test with UO-31; -8.51% with SF-539; 9.33% in the test with 786-0; 0.43% in the test on HOP-62; 3.68% in the test with SF-295. The inhibition of growth at 10 µM is -11.4% with CCRF-CEM; -1.88% in the test with MOLT-4; -6.3% with OVCAR-4; 7.13% in the test on SNB-19; -8.85% in the test on T47D; 3.38% in the test with SK-MEL-28. In addition, the inhibition of growth at 10 µM with NCI-H522 was -7.9%; in the test on LOX IMVI, -0.19%.
`N=C1Nc2c(sc3ccc(Cl)cc23)C(c2ccc3ccccc3c2)N1` (stereo not given): the inhibition of growth at 10 µM was -3.45% in the test with HL-60(TB); 13.2% in the test on NCI-H460; -16.2% with SK-MEL-2; -4.57% in the test on MDA-MB-435; 10.6% in the test with HCT-116; 3.41% in the test with KM12. The inhibition of growth at 10 µM is 3.37% with HCT-15; 14.6% with UO-31; -2.62% in the test on SF-539; 5.33% with 786-0; 13.8% with HOP-62; -3.49% with SF-295. Also, the inhibition of growth at 10 µM is -3.9% with CCRF-CEM; 10.9% with MOLT-4; 6.63% in the test on OVCAR-4; 18.1% in the test with SNB-19; -15.3% in the test with T47D; 2.06% in the test with SK-MEL-28. Besides, the inhibition of growth at 10 µM with NCI-H522 is -6.52%; with LOX IMVI, 6.47%.
On to `O=[N+]([O-])c1cccc(C2NC(=S)Nc3c2sc2ccc(Cl)cc32)c1` (stereo not given), for which the inhibition of growth at 10 µM in the test on HL-60(TB) was -2.41%; in the test with NCI-H460 it was 11.4%; in the test with SK-MEL-2, -9.95%; in the test on MDA-MB-435, -3.92%; with HCT-116, 13.4%; in the test on KM12 it was 1.91%. The inhibition of growth at 10 µM was -0.11% in the test with HCT-15; -6.1% in the test on UO-31; 5.63% in the test with SF-539; 1.48% in the test on 786-0; 21.8% with HOP-62; 5.63% in the test on SF-295. Further, the inhibition of growth at 10 µM in the test on CCRF-CEM was -11.8%; in the test on MOLT-4 it was 9.49%; with OVCAR-4, 8.46%; with SNB-19, 8.69%; in the test on T47D, 30.9%; in the test with SK-MEL-28, -8.2%. Also, the values for the inhibition of growth at 10 µM in the test with NCI-H522 and in the test with LOX IMVI were 13.7% and 7.83%, respectively.
